Data from PMC6004087, “Production of the compatible solute α-D-glucosylglycerol by metabolically engineered Corynebacterium glutamicum” (Microbial Cell Factories, 2018).

Target: T1, OtsA (trehalose 6-phosphate synthase; OtsA-Strep) (Corynebacterium glutamicum, UniProt Q8NMF3)
T1 construct: gene Cgl2624; full-length OtsA with C-terminal Strep-tag kept (pASK-IBA3-otsA), expressed in E. coli BL21(DE3), Strep-Tactin purified, 53 kDa
T1 sequence (Q8NMF3 1-485): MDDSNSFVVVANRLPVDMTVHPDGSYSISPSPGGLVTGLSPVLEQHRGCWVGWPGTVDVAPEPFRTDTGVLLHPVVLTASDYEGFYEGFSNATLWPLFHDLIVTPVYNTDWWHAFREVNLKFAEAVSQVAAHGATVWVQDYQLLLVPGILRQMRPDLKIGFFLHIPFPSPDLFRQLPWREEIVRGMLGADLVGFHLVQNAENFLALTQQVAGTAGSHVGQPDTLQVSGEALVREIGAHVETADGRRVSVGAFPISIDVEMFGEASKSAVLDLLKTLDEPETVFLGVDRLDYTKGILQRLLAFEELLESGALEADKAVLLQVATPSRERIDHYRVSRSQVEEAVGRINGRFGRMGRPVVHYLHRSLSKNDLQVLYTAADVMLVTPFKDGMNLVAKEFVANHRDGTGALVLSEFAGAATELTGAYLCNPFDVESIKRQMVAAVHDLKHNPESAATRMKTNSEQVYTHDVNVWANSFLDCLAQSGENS
Test: GC of trehalose after alkaline phosphatase treatment of trehalose-6-phosphate
Type: biochemical
Conditions: co-substrate 3 mM glucose-6-phosphate; 10 mM Tris-maleate, 5 mM MgCl2, 0.05 mM EDTA, pH 7.5, 30 °C; 3 mM or 5 mM sugar nucleotide

In the case of `Nc1ncnc2c1ncn2[C@@H]1O[C@H](COP(=O)(O)OP(=O)(O)O[C@H]2O[C@H](CO)[C@@H](O)[C@H](O)[C@H]2O)[C@@H](O)[C@H]1O` [ADP-glucose], the specific activity is reported as “C. glutamicum OtsA used UDP- as well as ADP-glucose as precursor for trehalose-phosphate synthesis”.
